# Source: US12624004B2 (Fudan University, priority 2019, dated 2026)
# Counter-ions that a name gives are not always drawn. Like-named read-outs stand apart in the source and are kept apart here.
# Assays:
# [1] = target: T1, κ opioid receptor (Homo sapiens, UniProt P41145); experiment: Competition binding assay on membranes of CHO cells expressing κ opioid receptor, [3H]-labeled ligand; conditions: for inhibition at 1 µM / inhibition at 10 µM: 0.5 h; for inhibition at 10 µM: Table 1-1, 10 μM concentration of compound
# T1 construct: expressed in transfected cells; host or cells: CHO cells (membranes)
# Method in brief: (§1)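 CHO membranes (20–30 μg protein) incubated with [3H]-labeled ligand at 1–2 nM and test compounds, 30 min at 30° C; nonspecific binding with 1 μM corresponding ligand. Filtered on GF/C, washed with 50 mM Tris-HCl pH 7.4, scintillation-counted. IC50 converted to Ki by Ki=IC50/(1+[L]/Kd).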
# [2] = test system: Female mice; experiment: In vivo hot plate method analgesia test; conditions: intraperitoneal; for Maximum percentage effective analgesia (% MPE): Table 5-2, hot plate 55° C.; for Maximum percentage effective analgesia (% MPE) / % MPE @ 10 mg/kg: 10 mg/kg dose; for % MPE (5 mg/kg): Table 2-2, hot plate 55° C.; for % MPE @ 10 mg/kg: Table 3-2, hot plate 55° C.; for ED50: Mus musculus, ip; for Maximum percentage effective analgesic (% MPE): Table 1-2, hot plate 55° C.; for % MPE (5 mg/kg) / Maximum percentage effective analgesic (% MPE): 5 mg/kg dose
# Procedure: Female mice weighing about 20 g were placed on a hot plate apparatus preheated to 55° C., and the latency of the hindfoot response of the mice was used as the pain threshold indicator. Animals were screened before the experiment, and those with response latency less than 5 s or more than 30 s were excluded. To prevent foot scalding, the maximum observation time was set at 60 s. The basal pain threshold was the average of two measurements, with a 5-min interval between measurements. pain thresholds were measured at 15 m, 30 m, 60 m and 120 m after intraperitoneal injection in each group of mice. The percentage effective analgesia (% MPE) was calculated according to the following formula: percentage effective analgesia (% MPE) (post-dose latency−pre-dose latency)/(60−pre-dose latency)×100%. ED50 values were calculated based on the effective percentage of analgesia using the software Graphpad prism 5.0 software.
# (§2) Female mice weighing about 20 g were placed on a hot plate apparatus preheated to 55° C., and the latency of the hindfoot response of the mice was used as the pain threshold indicator. Animals were selected before the experiment, and those with response latency less than 5 s or greater than 30 s were excluded. To prevent foot scalding, the maximum observation time was set at 60 s. The basal pain threshold was the average of two measurements, with a 5-min interval between measurements. pain thresholds were measured at 15 min, 30 min, 60 min and 120 min after intraperitoneal administration in each group of mice. The percentage of analgesic effectiveness (% MPE) was calculated according to the following equation. Percentage of effective analgesia (% MPE)_(Pre-dose incubation period−Incubation period after drug administration)/(60-Pre-dose incubation period)×100%. ED50 values were calculated based on the effective percentage of analgesia using GraphPad prism 5.0 software.
# as §2, with “were screened” for “were selected”, “measurements. Pain” for “measurements. pain”, “following formula.” for “following equation. Percentage of effective analgesia (% MPE)_(Pre-dose incubation period−Incubation period after drug administration)/(60-Pre-dose incubation period)×100%. ED50 values were calculated based on the effective percentage of analgesia using GraphPad prism 5.0 software.”
# ED50 values were calculated based on the effective percentage of analgesia using Graphpad Prism 5.0.
# Female mice weighing about 20 g were placed on a hot plate apparatus preheated to 55° C., and the latency of the hindfoot response of the mice was used as the pain threshold indicator. Animals were screened before the experiment, and those with response latency less than 5 s or more than 30 s were excluded. To prevent foot scalding, the maximum observation time was set at 60 s. The basal pain threshold was the average of two measurements, with a 5-min interval between measurements. pain thresholds were measured at 15 min, 30 min, 60 min and 120 min after intraperitoneal administration in each group of mice. The analgesic effective percentage (% MPE) was calculated according to the following formula: analgesic effective percentage (% MPE)=(latency after drug administration−latency before drug administration)/(60−latency before drug administration)×100%. ED50 values were calculated based on the effective percentage of analgesia using the software Graphpad prism 5.0.
# Female mice weighing about 20 g were placed on a hot plate apparatus preheated to 55° C. and the latency of the hindfoot response was used as an indicator of pain threshold. […]
# [3] = target: T2, μ opioid receptor (Homo sapiens, UniProt P35372); experiment: Competition binding assay on membranes of CHO cells expressing μ opioid receptor, [3H]-labeled ligand; conditions: for Ki: read-out: μOR Ki; for inhibition at 10 µM: Table 1-1, 10 μM concentration of compound, mean ± SD of three measurements
# T2 construct: expressed in transfected cells; host or cells: CHO cells (membranes)
# Method in brief: as §1
# [4] = target: T3, δ opioid receptor (Homo sapiens, UniProt P41143); experiment: Competition binding assay on membranes of CHO cells expressing δ opioid receptor, [3H]-labeled ligand; conditions: for inhibition at 1 µM / inhibition at 10 µM: 0.5 h; for inhibition at 10 µM: Table 1-1, 10 μM concentration of compound
# T3 construct: expressed in transfected cells; host or cells: CHO cells (membranes)
# Method in brief: as §1
# [5] = Table 2-1, 1 μM concentration of compound, read-out: κOR Binding rate (%)
# [6] = Table 2-1, 1 μM concentration of compound, read-out: δOR Binding rate (%)
# [7] = Table 3-1, 1 μM concentration of compounds, read-out: κOR Binding rate (%)
# [8] = Table 3-1, 1 μM concentration of compounds, read-out: μOR Binding rate (%)
# [9] = Table 3-1, 1 μM concentration of compounds, read-out: δOR Binding rate (%)
compound,measurement,setting,value
"COc1cccc(C2(O)CCN(C(=O)C3(c4ccccc4)CCCC3)CC2CN(C)C)c1.Cl (stereo not drawn) [FWBE26, (3-((Dimethylamino)methyl)-4-hydroxy-4-(3-methoxyphenyl)piperidin-1-yl)(1-phenylcyclopentyl) methanone hydrochloride]",Ki,"[1]; Table 5-1, read-out: κOR Ki",32.6 ± 4.35 nM
same,Maximum percentage effective analgesia (% MPE),[2],52.96%
same,Ki,[3]; Table 5-1,73.72 ± 0.32 nM
same,Ki,"[4]; Table 5-1, read-out: δOR Ki",1640 ± 1160 nM
"COc1cccc(C2(O)CCN(S(=O)(=O)CCc3ccccc3)CC2CN(C)C)c1.Cl (stereo not drawn) [FWBH9, 3-((Dimethylamino)methyl)-4-(3-methoxyphenyl)-1-(phenethylsulfonyl)piperidin-4-ol hydrochloride]",inhibition at 1 µM,[1]; [5],8.41 ± 1.66%
same,% MPE (5 mg/kg),[2],100%
same,Ki,[3]; Table 2-1,1.79 ± 2 nM
same,inhibition at 1 µM,[4]; [6],0%
"COc1cccc(C2(O)CCN(C(=O)Cc3cc(C(F)(F)F)cc(C(F)(F)F)c3)CC2CN(C)C)c1.Cl (stereo not drawn) [FWBE1, 2-(3,5-Bis(trifluoromethyl)phenyl)-1-(3-((dimethylamino)methyl)-4-hydroxy-4-(3-methoxyphenyl)piperidin-1-yl)ethyl-1-one hydrochloride]",Ki,"[1]; Table 5-1, read-out: κOR Ki",4420 ± 182 nM
same,Maximum percentage effective analgesia (% MPE),[2],17.8%
same,Ki,[3]; Table 5-1,25.3 ± 4.9 nM
same,Ki,"[4]; Table 5-1, read-out: δOR Ki",4390 ± 351 nM
"COC(=O)c1sccc1NC(=O)N1CCC(O)(c2cccc(OC)c2)C(CN(C)C)C1 (stereo not drawn) [FWBF17, Methyl 3-(3-((dimethylamino)methyl)-4-hydroxy-4-(3-methoxyphenyl)piperidine-1-carboxamide) thiophene-2-carboxylate hydrochloride]",inhibition at 1 µM,[1]; [7],0%
same,% MPE @ 10 mg/kg,[2],19.34%
same,inhibition at 1 µM,[3]; [8],10.2 ± 9%
same,inhibition at 1 µM,[4]; [9],0%
"COc1cccc(C2(O)CCN(S(=O)(=O)Cc3ccccc3)CC2CN(C)C)c1.Cl (stereo not drawn) [FWBH6, 1-(Benzylsulfonyl)-3-((dimethylamino)methyl)-4-(3-methoxyphenyl)piperidin-4-ol hydrochloride]",Ki,[1],> 10000 nM
same,ED50,"[2]; Table 2-2, hot plate",1.1 mg/kg
same,inhibition at 1 µM,"[3]; Table 2-1, 1 μM concentration of compound, read-out: μOR Binding rate (%)",0%
same,Ki,[4],> 10000 nM
"COc1cccc(C2(O)CCN(S(=O)(=O)Cc3cccc([N+](=O)[O-])c3)CC2CN(C)C)c1.Cl (stereo not drawn) [FWBH22, 3-((Dimethylamino)methyl)-4-(3-methoxyphenyl)-1-((3-nitrobenzyl)sulfonyl)piperidin-4-ol hydrochloride]",inhibition at 1 µM,[1]; [5],32.7 ± 3.1%
same,% MPE (5 mg/kg),[2],41.43%
same,Ki,[3]; Table 2-1,212 ± 9 nM
same,inhibition at 1 µM,[4]; [6],10.2 ± 3.19%
"COc1cccc(C2(O)CCN(S(=O)(=O)C[C@@]34CC[C@@H](CC3O)C4(C)C)CC2CN(C)C)c1 (stereo partly drawn) [FWBH26, 3-((Dimethylamino)methyl)-1-((((1R,4S)-2-hydroxy-7,7-dimethylbicyclo[2.2.1]hept-1-yl)methyl)sulfonic acid acyl)-4-(3-methoxyphenyl)piperidin-4-ol hydrochlorid, hydrochloride]",Ki,"[1]; Table 2-1, read-out: κOR Ki",8.2 ± 3.1 nM
same,% MPE (5 mg/kg),[2],44.91%
same,Ki,[3]; Table 2-1,11.5 ± 1.6 nM
same,inhibition at 1 µM,[4]; [6],9.15 ± 1.92%
"COc1cccc(C2(O)CCN(C(=O)Nc3cccc(Cl)c3)CC2CN(C)C)c1.Cl (stereo not drawn) [FWBF2, N-(3-Chlorophenyl)-3-((dimethylamino)methyl)-4-hydroxy-4-(3-methoxyphenyl)piperidine-1-carboxamide hydrochloride]",Ki,"[1]; Table 3-1, read-out: κOR Ki",719 ± 197 nM
same,% MPE @ 10 mg/kg,[2],21.27%
same,Ki,[3]; Table 3-1,14.1 ± 2.7 nM
same,Ki,"[4]; Table 3-1, read-out: δOR Ki",537 ± 69.3 nM
COc1cccc(C2(O)CCC(CS(=O)(=O)c3ccccc3)CC2CN(C)C)c1.Cl (stereo not drawn) [2-((Dimethylamino)methyl)-1-(3-methoxyphenyl)-4-((phenylsulfonyl)methyl)cyclohexane-1-ol hydrochloride],inhibition at 10 µM,[1]; read-out: κOR Binding rate (%),34.6 ± 5.1%
same,Maximum percentage effective analgesic (% MPE),[2],22.4%
same,inhibition at 10 µM,[3]; read-out: μOR Binding rate (%),86.9 ± 2%
same,inhibition at 10 µM,[4]; read-out: δOR Binding rate (%),9.3%
"COc1cccc(C2(O)CCN(C(=O)Cc3cc(F)c(F)cc3F)CC2CN(C)C)c1.Cl (stereo not drawn) [FWBE18, 1-(3-((Dimethylamino)methyl)-4-hydroxy-4-(3-methoxyphenyl)piperidin-1-yl)-2-(2,4,5-trifluorophenyl)ethyl-1-one hydrochloride]",inhibition at 1 µM,"[1]; Table 5-1, 1 μM concentration of compound, read-out: κOR Combination rate (%)",61.6 ± 0.7%
same,ED50,"[2]; Table 5-2, hot plate",1.11 mg/kg
same,inhibition at 1 µM,"[3]; 0.5 h, Table 5-1, 1 μM concentration of compound, read-out: μOR Combination rate (%)",29.7 ± 1.9%
same,inhibition at 1 µM,"[4]; Table 5-1, 1 μM concentration of compound, read-out: δOR Combination rate (%)",0%
"COc1cccc(C2(O)CCN(C(=O)N[C@@H](C)c3ccccc3)CC2CN(C)C)c1 (stereo partly drawn) [FWBF13, 3-((Dimethylamino)methyl)-4-hydroxy-4-(3-methoxyphenyl)-N-((S)-1-phenylethyl)piperidine-1-carboxamide hydrochloride]",inhibition at 1 µM,[1]; [7],4.1 ± 6.7%
same,% MPE @ 10 mg/kg,[2],5.77%
same,inhibition at 1 µM,[3]; [8],20.5 ± 5.5%
same,inhibition at 1 µM,[4]; [9],0%
"COc1cccc(C2(O)CCN(C(=O)Nc3ccc(F)c(F)c3)CC2CN(C)C)c1.Cl (stereo not drawn) [FWBF8, N-(3,4-difluorophenyl)-3-((dimethylamino)methyl)-4-hydroxy-4-(3-methoxyphenyl)piperidine-1-carboxamide hydrochloride]",inhibition at 1 µM,[1]; [7],0%
same,% MPE @ 10 mg/kg,[2],21.76%
same,inhibition at 1 µM,[3]; [8],13.6 ± 13.1%
same,inhibition at 1 µM,[4]; [9],16.4 ± 10.6%
COc1cccc(C2(O)CCC(N(Cc3ccccc3)S(=O)(=O)c3cccs3)CC2CN(C)C)c1.Cl (stereo not drawn) [N-Benzyl-N-(3-((dimethylamino)methyl)-4-hydroxy-4-(3-methoxyphenyl)cyclohexyl)thiophene-2-sulfonamide hydrochloride],inhibition at 10 µM,[1]; read-out: κOR Binding rate (%),71.2 ± 2.7%
same,Maximum percentage effective analgesic (% MPE),[2],22.8%
same,inhibition at 10 µM,[3]; read-out: μOR Binding rate (%),68.4 ± 3.4%
same,inhibition at 10 µM,[4]; read-out: δOR Binding rate (%),0%
"COc1cccc(C2(O)CCN(C(=O)Cc3cccc4ccccc34)CC2CN(C)C)c1.Cl (stereo not drawn) [FWBE16, 1-(3-((Dimethylamino)methyl)-4-hydroxy-4-(3-methoxyphenyl)piperidin-1-yl)-2-(naphthalen-1-yl)ethyl-1-one hydrochloride]",Ki,"[1]; Table 5-1, read-out: κOR Ki",1700 ± 379 nM
same,Maximum percentage effective analgesia (% MPE),[2],78.72%
same,Ki,[3]; Table 5-1,353 ± 4.5 nM
same,Ki,"[4]; Table 5-1, read-out: δOR Ki",2160 ± 72 nM
"COc1cccc(C2(O)CCN(S(=O)(=O)Cc3ccc(F)cc3)CC2CN(C)C)c1.Cl (stereo not drawn) [FWBH12, 3-((Dimethylamino)methyl)-1-((4-fluorobenzyl)sulfonyl)-4-(3-methoxyphenyl)piperidin-4-ol hydrochloride]",inhibition at 1 µM,[1]; [5],45.9 ± 2.11%
same,% MPE (5 mg/kg),[2],332.92%
same,Ki,[3]; Table 2-1,39.2 ± 6.13 nM
same,Ki,"[4]; Table 2-1, read-out: δOR Ki",1110 ± 28.5 nM
